Assay results from PubChem BioAssay AID1745844 (Carcinogenic Potency Database (CPDB), 2022).
Activity calls are given as the source filed them. The rule behind the calls is not given here.

Tested on: rodent lifetime carcinogenesis bioassay, tumor incidence TD50
Assay: carcinogenic potency in animals, long-term in vivo studies, CPDB compilation (AID 1745844)

In the case of `Cc1ccc(N=C=O)cc1N=C=O`, the TD50 (mouse, strain B6C3F1, females, by gavage, site: abdominal cavity + liver + ovary + spleen + subcutaneous tissue, lesion: hemangiosarcoma + hemangioma, dosed 105 weeks, study length 107 weeks) is reported as 580 mg/kg/day, the TD50 (mouse, strain B6C3F1, females, by gavage, site: abdominal cavity + liver + ovary + spleen + subcutaneous tissue, lesion: hemangiosarcoma + hepatocellular adenoma + hemangioma, dosed 105 weeks, study length 107 weeks) is reported as 181 mg/kg/day and the TD50 (mouse, strain B6C3F1, females, by gavage, site: abdominal cavity + liver + ovary, lesion: hemangiosarcoma, dosed 105 weeks, study length 107 weeks) is reported as 1200 mg/kg/day. The TD50 (mouse, strain B6C3F1, females, by gavage, site: any site (literature study), lesion: several types, types named in the paper, dosed 105 weeks, study length 107 weeks) was 305 mg/kg/day, the TD50 (mouse, strain B6C3F1, females, by gavage, site: liver, lesion: hepatocellular adenoma + hepatocellular carcinoma + neoplastic nodule, dosed 105 weeks, study length 107 weeks) was 215 mg/kg/day and the TD50 (mouse, strain B6C3F1, females, by gavage, site: liver, lesion: hepatocellular adenoma + hepatocellular carcinoma, dosed 105 weeks, study length 107 weeks) was 215 mg/kg/day. For the same molecule, the TD50 (mouse, strain B6C3F1, females, by gavage, site: liver, lesion: hepatocellular adenoma, dosed 105 weeks, study length 107 weeks) was 250 mg/kg/day, the TD50 (mouse, strain B6C3F1, females, by gavage, site: lung, lesion: alveolar/bronchiolar adenoma + alveolar/bronchiolar carcinoma, dosed 105 weeks, study length 107 weeks) was 815 mg/kg/day and the TD50 (mouse, strain B6C3F1, males, by gavage, site: any site (literature study), lesion: several types, types named in the paper, dosed 105 weeks, study length 107 weeks) was 253 mg/kg/day (inactive). For the same molecule, the TD50 (mouse, strain B6C3F1, males, by gavage, site: lung, lesion: alveolar/bronchiolar adenoma + alveolar/bronchiolar carcinoma, dosed 105 weeks, study length 107 weeks) was 1920 mg/kg/day, the carcinogen call (mouse, strain Charles River CD1, females, inhaled, site: any site (literature study), lesion: benign tumor, dosed 104 weeks, study length 104 weeks) was “negative (inactive)” and the carcinogen call (mouse, strain Charles River CD1, females, inhaled, site: any site (literature study), lesion: malignant tumor, dosed 104 weeks, study length 104 weeks) was “negative (inactive)”. The carcinogen call (mouse, strain Charles River CD1, females, inhaled, site: any site (literature study), lesion: several types, types named in the paper, dosed 104 weeks, study length 104 weeks) was “negative (inactive)”, the carcinogen call (mouse, strain Charles River CD1, females, inhaled, site: liver, lesion: hepatocellular adenoma, dosed 104 weeks, study length 104 weeks) was “negative (inactive)” and the carcinogen call (mouse, strain Charles River CD1, females, inhaled, site: liver, lesion: hepatocellular carcinoma, dosed 104 weeks, study length 104 weeks) was “negative (inactive)”. The carcinogen call (mouse, strain Charles River CD1, females, inhaled, site: lung, lesion: adenoma, dosed 104 weeks, study length 104 weeks) was “negative (inactive)”, the carcinogen call (mouse, strain Charles River CD1, females, inhaled, site: lung, lesion: carcinoma, dosed 104 weeks, study length 104 weeks) was “negative (inactive)” and the carcinogen call (mouse, strain Charles River CD1, males, inhaled, site: any site (literature study), lesion: benign tumor, dosed 104 weeks, study length 104 weeks) was “negative (inactive)”. For the same molecule, the carcinogen call (mouse, strain Charles River CD1, males, inhaled, site: any site (literature study), lesion: malignant tumor, dosed 104 weeks, study length 104 weeks) was “negative (inactive)”, the TD50 (mouse, strain Charles River CD1, males, inhaled, site: any site (literature study), lesion: several types, types named in the paper, dosed 104 weeks, study length 104 weeks) was 1.63 mg/kg/day (inactive) and the carcinogen call (mouse, strain Charles River CD1, males, inhaled, site: liver, lesion: hepatocellular adenoma, dosed 104 weeks, study length 104 weeks) was “negative (inactive)”. For the same molecule, the carcinogen call (mouse, strain Charles River CD1, males, inhaled, site: liver, lesion: hepatocellular carcinoma, dosed 104 weeks, study length 104 weeks) was “negative (inactive)”, the TD50 (mouse, strain Charles River CD1, males, inhaled, site: lung, lesion: adenoma, dosed 104 weeks, study length 104 weeks) was 0.3 mg/kg/day (inactive) and the carcinogen call (mouse, strain Charles River CD1, males, inhaled, site: lung, lesion: carcinoma, dosed 104 weeks, study length 104 weeks) was “negative (inactive)”. For the same molecule, the carcinogen call (rat, strain Charles River CD (Sprague-Dawley), females, inhaled, site: any site (literature study), lesion: benign tumor, dosed 108 weeks, study length 108 weeks) was “negative (inactive)”, the TD50 (rat, strain Charles River CD (Sprague-Dawley), females, inhaled, site: any site (literature study), lesion: malignant tumor, dosed 108 weeks, study length 108 weeks) was 1.09 mg/kg/day (inactive) and the carcinogen call (rat, strain Charles River CD (Sprague-Dawley), females, inhaled, site: any site (literature study), lesion: several types, types named in the paper, dosed 108 weeks, study length 108 weeks) was “negative (inactive)”. For the same molecule, the TD50 (rat, strain Charles River CD (Sprague-Dawley), females, inhaled, site: liver, lesion: hepatocellular carcinoma, dosed 108 weeks, study length 108 weeks) was 8.24 mg/kg/day (inactive), the carcinogen call (rat, strain Charles River CD (Sprague-Dawley), males, inhaled, site: any site (literature study), lesion: benign tumor, dosed 110 weeks, study length 110 weeks) was “negative (inactive)” and the TD50 (rat, strain Charles River CD (Sprague-Dawley), males, inhaled, site: any site (literature study), lesion: malignant tumor, dosed 110 weeks, study length 110 weeks) was 6.18 mg/kg/day (inactive). For the same molecule, the carcinogen call (rat, strain Charles River CD (Sprague-Dawley), males, inhaled, site: any site (literature study), lesion: several types, types named in the paper, dosed 110 weeks, study length 110 weeks) was “negative (inactive)”, the carcinogen call (rat, strain Charles River CD (Sprague-Dawley), males, inhaled, site: liver, lesion: hepatocellular carcinoma, dosed 110 weeks, study length 110 weeks) was “negative (inactive)” and the TD50 (rat, strain Fischer 344, females, by gavage, site: adrenal gland, lesion: cortical adenoma, dosed 106 weeks, study length 108 weeks) was 174 mg/kg/day. The TD50 (rat, strain Fischer 344, females, by gavage, site: adrenal gland, lesion: pheochromocytoma, dosed 106 weeks, study length 108 weeks) was 143 mg/kg/day, the TD50 (rat, strain Fischer 344, females, by gavage, site: any site (literature study), lesion: several types, types named in the paper, dosed 106 weeks, study length 108 weeks) was 25.1 mg/kg/day and the TD50 (rat, strain Fischer 344, females, by gavage, site: clitoral gland, lesion: adenoma, NOS, dosed 106 weeks, study length 108 weeks) was 260 mg/kg/day. It also gave a TD50 (rat, strain Fischer 344, females, by gavage, site: liver + mammary gland + pancreatic islets + subcutaneous tissue, lesion: neoplastic nodule + fibroadenoma + islet-cell adenoma + fibrosarcoma + fibroma, dosed 106 weeks, study length 108 weeks) of 25.4 mg/kg/day, a TD50 (rat, strain Fischer 344, females, by gavage, site: liver, lesion: hepatocellular adenoma + hepatocellular carcinoma + neoplastic nodule, dosed 106 weeks, study length 108 weeks) of 92.2 mg/kg/day and a TD50 (rat, strain Fischer 344, females, by gavage, site: liver, lesion: neoplastic nodule, dosed 106 weeks, study length 108 weeks) of 92.2 mg/kg/day. It also gave a TD50 (rat, strain Fischer 344, females, by gavage, site: mammary gland, lesion: fibroadenoma, dosed 106 weeks, study length 108 weeks) of 33.4 mg/kg/day, a TD50 (rat, strain Fischer 344, females, by gavage, site: pancreatic islets, lesion: islet-cell adenoma + islet-cell carcinoma, dosed 106 weeks, study length 108 weeks) of 115 mg/kg/day and a TD50 (rat, strain Fischer 344, females, by gavage, site: pancreatic islets, lesion: islet-cell adenoma, dosed 106 weeks, study length 108 weeks) of 135 mg/kg/day. It also gave a TD50 (rat, strain Fischer 344, females, by gavage, site: pituitary gland, lesion: chromophobe adenoma + chromophobe carcinoma, dosed 106 weeks, study length 108 weeks) of 86.9 mg/kg/day, a TD50 (rat, strain Fischer 344, females, by gavage, site: pituitary gland, lesion: chromophobe adenoma, dosed 106 weeks, study length 108 weeks) of 77.3 mg/kg/day and a TD50 (rat, strain Fischer 344, females, by gavage, site: subcutaneous tissue, lesion: fibroma, dosed 106 weeks, study length 108 weeks) of 256 mg/kg/day. It also gave a TD50 (rat, strain Fischer 344, females, by gavage, site: subcutaneous tissue, lesion: fibrosarcoma + fibroma, dosed 106 weeks, study length 108 weeks) of 206 mg/kg/day, a TD50 (rat, strain Fischer 344, males, by gavage, site: any site (literature study), lesion: several types, types named in the paper, dosed 106 weeks, study length 108 weeks) of 18.4 mg/kg/day and a TD50 (rat, strain Fischer 344, males, by gavage, site: liver, lesion: hepatocellular adenoma + hepatocellular carcinoma + neoplastic nodule, dosed 106 weeks, study length 108 weeks) of 196 mg/kg/day. It also gave a TD50 (rat, strain Fischer 344, males, by gavage, site: pancreas + subcutaneous tissue, lesion: acinar-cell adenoma + fibrosarcoma + fibroma, dosed 106 weeks, study length 108 weeks) of 27.3 mg/kg/day, a TD50 (rat, strain Fischer 344, males, by gavage, site: pancreas, lesion: acinar-cell adenoma, dosed 106 weeks, study length 108 weeks) of 51.6 mg/kg/day and a TD50 (rat, strain Fischer 344, males, by gavage, site: pancreatic islets, lesion: islet-cell adenoma + islet-cell carcinoma, dosed 106 weeks, study length 108 weeks) of 201 mg/kg/day. The TD50 (rat, strain Fischer 344, males, by gavage, site: pituitary gland, lesion: chromophobe adenoma + chromophobe carcinoma, dosed 106 weeks, study length 108 weeks) was 83.7 mg/kg/day, the TD50 (rat, strain Fischer 344, males, by gavage, site: pituitary gland, lesion: chromophobe adenoma, dosed 106 weeks, study length 108 weeks) was 76.4 mg/kg/day and the TD50 (rat, strain Fischer 344, males, by gavage, site: subcutaneous tissue, lesion: fibroma, dosed 106 weeks, study length 108 weeks) was 56 mg/kg/day. The TD50 (rat, strain Fischer 344, males, by gavage, site: subcutaneous tissue, lesion: fibrosarcoma + fibroma, dosed 106 weeks, study length 108 weeks) was 34.1 mg/kg/day, the TD50 (rat, strain Fischer 344, males, by gavage, site: subcutaneous tissue, lesion: fibrosarcoma + osteosarcoma + sarcoma, NOS, dosed 106 weeks, study length 108 weeks) was 103 mg/kg/day and the TD50 (rat, strain Fischer 344, males, by gavage, site: subcutaneous tissue, lesion: fibrosarcoma, dosed 106 weeks, study length 108 weeks) was 92.4 mg/kg/day. It also gave a TD50 (rat, strain Fischer 344, males, by gavage, site: testis, lesion: interstitial-cell tumor + interstitial-cell tumor, malignant, dosed 106 weeks, study length 108 weeks) of 13.6 mg/kg/day.
`CN[C@H]1CC[C@@H](c2ccc(Cl)c(Cl)c2)c2ccccc21` was tested, and the TD50 (mouse, strain Charles River CD1, females, in feed, site: lung, lesion: alveolar/bronchiolar adenoma, dosed 104 weeks, study length 104 weeks) was 247 mg/kg/day (inactive), the TD50 (mouse, strain Charles River CD1, males, in feed, site: liver, lesion: hepatocellular adenoma, dosed 104 weeks, study length 104 weeks) was 147 mg/kg/day and the TD50 (mouse, strain Charles River CD1, males, in feed, site: liver, lesion: hepatocellular carcinoma, dosed 104 weeks, study length 104 weeks) was 425 mg/kg/day. The TD50 (rat, strain Long-Evans, females, in feed, site: thyroid gland, lesion: follicular-cell adenoma, dosed 104 weeks, study length 104 weeks) was 352 mg/kg/day (inactive).
